From US6737383B1, “Herbicidal oxadiazolidines” (priority 1999, dated 2004)

What was measured:
[1] = test system: bamyardgrass; test: Test B flood test barnyardgrass; format: in vivo, Echinochloa crus-galli; conditions: for Plant response rating, Barnyardgrass: scale 0 to 10, 0 is no effect, 10 is complete control; for Barnyardgrass plant response rating: scale of 0 to 10 where 0 is no effect and 10 is complete control
In short: (§1)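 Read-out is a visual response score from 0 (no effect) to 10 (complete control), assigned by comparison with untreated controls. Treatment was applied at the 2-leaf stage, and plants stayed in the greenhouse for twelve to sixteen days before scoring.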

[2] = test system: bedstraw; test: Test B pre/postemergence bedstraw; format: in vivo, Galium aparine; conditions: Postemergence; for Plant response rating, Bedstraw: scale 0 to 10, 0 is no effect, 10 is complete control; for Bedstraw plant response rating: scale of 0 to 10 where 0 is no effect and 10 is complete control
In short: (§2)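 Test chemicals in a non-phytotoxic solvent mixture with surfactant were sprayed preemergence onto planted seeds and postemergence onto plants 2 to 18 cm tall (1- to 4-leaf stage). After twelve to sixteen days in a greenhouse, injury was visually rated against untreated controls from 0 (no effect) to 10 (complete control).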

[3] = test system: wheat; test: Test B pre/postemergence wheat; format: in vivo, Triticum aestivum
In short: as §2

[4] = test system: pigweed; test: Test B pre/postemergence pigweed; format: in vivo, Amaranthus retroflexus
In short: as §2

[5] = test system: cocklebur; test: Test B pre/postemergence cocklebur; format: in vivo, Xanthium strumarium
In short: as §2

[6] = test system: crabgrass; test: Test B pre/postemergence crabgrass; format: in vivo, Digitaria sanguinalis
In short: as §2

[7] = test system: purple nutsedge; test: Test B pre/postemergence purple nutsedge; format: in vivo, Cyperus rotundus
In short: as §2

[8] = test system: velvetleaf; test: Test B pre/postemergence velvetleaf; format: in vivo, Abutilon theophrasti
In short: as §2

[9] = test system: soybean; test: Test B pre/postemergence soybean; format: in vivo, Glycine max
In short: as §2

[10] = test system: rape; test: Test B pre/postemergence rape; format: in vivo, Brassica napus
In short: as §2

[11] = test system: smallflower flatsedge; test: Test B flood test smallflower flatsedge; format: in vivo, Cyperus difformis
In short: as §1

[12] = test system: sugar beet; test: Test B pre/postemergence sugar beet; format: in vivo, Beta vulgaris
In short: as §2

[13] = test system: corn; test: Test B pre/postemergence corn; format: in vivo, Zea mays
In short: as §2

[14] = test system: surinam grass; test: Test B pre/postemergence surinam grass; format: in vivo, Brachiaria decumbens
In short: as §2

[15] = test system: blackgrass; test: Test B pre/postemergence blackgrass; format: in vivo, Alopecurus myosuroides
In short: as §2

[16] = test system: wild oat; test: Test B pre/postemergence wild oat; format: in vivo, Avena fatua
In short: as §2

[17] = Postemergence, Rate 500 g/ha, scale of 0 to 10 where 0 is no effect and 10 is complete control
[18] = Preemergence, Rate 62 g/ha, scale 0 to 10 (0 no effect, 10 complete control)
[19] = Preemergence, Rate 125 g/ha, scale of 0 to 10 where 0 is no effect and 10 is complete control
[20] = Preemergence, Rate 250 g/ha, scale 0 to 10, 0 is no effect, 10 is complete control
[21] = Preemergence, Rate 500 g/ha, scale 0 to 10, 0 is no effect, 10 is complete control
[22] = Postemergence, Rate 250 g/ha, scale 0 to 10, 0 is no effect, 10 is complete control
[23] = Postemergence, Rate 125 g/ha, scale 0 to 10, 0 is no effect, 10 is complete control
[24] = Rate 62 g/ha, Postemergence, scale of 0 to 10 where 0 is no effect and 10 is complete control
[25] = Preemergence, Rate 250 g/ha, scale of 0 to 10 where 0 is no effect and 10 is complete control

In the case of `CSCCn1c(=O)on(C(=O)N(c2ccccc2)C(C)C)c1=O` [Compound 419], the “Plant response rating, Barnyardgrass” value ([1]; Postemergence (flood test), Rate 125 g/ha) is reported as 0, the “Barnyardgrass plant response rating” value ([1]; Postemergence section (flood test species), Rate 500 g/ha) is reported as 0 and the “Barnyardgrass plant response rating” value ([1]; Rate 62 g/ha, Postemergence (flood test species)) is reported as 0. For the same compound, the “Plant response rating, Barnyardgrass” value ([1]; flood test species, listed under Postemergence, Rate 250 g/ha) was 0, the “Plant response rating, Bedstraw” value ([2]; Rate 125 g/ha) was 0 and the “Plant response rating, Bedstraw” value ([2]; Rate 250 g/ha) was 0. The “Bedstraw plant response rating” value ([2]; Rate 500 g/ha) was 0, the “Bedstraw plant response rating” value ([2]; Rate 62 g/ha) was 0 and the “Wheat plant response rating” value [3, 17] was 0. The “Plant response rating, Wheat” value [3, 18] was 0, the “Plant response rating, Wheat” value [3, 19] was 0 and the “Wheat plant response rating” value [3, 20] was 0. The “Wheat plant response rating” value [3, 21] was 0, the “Plant response rating, Redroot pigweed” value [4, 22] was 0 and the “Redroot pigweed plant response rating” value [4, 17] was 0. The “Plant response rating, Redroot pigweed” value [4, 18] was 0, the “Plant response rating, Redroot pigweed” value [4, 19] was 0 and the “Redroot pigweed plant response rating” value [4, 20] was 6. The “Redroot pigweed plant response rating” value [4, 21] was 10, the “Plant response rating, Cocklebur” value [5, 23] was 0 and the “Plant response rating, Cocklebur” value [5, 22] was 0. For the same compound, the “Cocklebur plant response rating” value [5, 17] was 0, the “Plant response rating, Cocklebur” value [5, 18] was 0 and the “Plant response rating, Cocklebur” value [5, 19] was 0. For the same compound, the “Cocklebur plant response rating” value [5, 20] was 0, the “Cocklebur plant response rating” value [5, 21] was 0 and the “Cocklebur plant response rating” value [5, 24] was 0. The “Plant response rating, Crabgrass” value [6, 23] was 0, the “Plant response rating, Crabgrass” value [6, 22] was 0 and the “Crabgrass plant response rating” value [6, 17] was 1. For the same compound, the “Plant response rating, Crabgrass” value [6, 18] was 0, the “Plant response rating, Crabgrass” value [6, 19] was 1 and the “Crabgrass plant response rating” value [6, 20] was 4. The “Crabgrass plant response rating” value [6, 21] was 9, the “Crabgrass plant response rating” value [6, 24] was 0 and the “Plant response rating, Nutsedge” value [7, 22] was 0. The “Nutsedge plant response rating” value [7, 17] was 0, the “Plant response rating, Nutsedge” value [7, 18] was 0 and the “Plant response rating, Nutsedge” value [7, 19] was 0. The “Nutsedge plant response rating” value [7, 20] was 0, the “Nutsedge plant response rating” value [7, 21] was 0 and the “Plant response rating, Velvetleaf” value [8, 22] was 0. The “Velvetleaf plant response rating” value [8, 17] was 2, the “Plant response rating, Velvetleaf” value [8, 18] was 0 and the “Plant response rating, Velvetleaf” value [8, 19] was 0. For the same compound, the “Velvetleaf plant response rating” value [8, 20] was 1, the “Velvetleaf plant response rating” value [8, 21] was 4 and the “Plant response rating, Soybean” value [9, 22] was 3. For the same compound, the “Soybean plant response rating” value [9, 17] was 3, the “Plant response rating, Soybean” value [9, 18] was 0 and the “Plant response rating, Soybean” value [9, 19] was 0. For the same compound, the “Soybean plant response rating” value [9, 20] was 0, the “Soybean plant response rating” value [9, 21] was 0 and the “Plant response rating, Rape” value [10, 22] was 0. The “Rape plant response rating” value [10, 17] was 0, the “Plant response rating, Rape” value [10, 18] was 0 and the “Plant response rating, Rape” value [10, 19] was 0. The “Rape plant response rating” value [10, 20] was 2, the “Rape plant response rating” value [10, 21] was 2 and the “S. Flatsedge plant response rating” value ([11]; Postemergence section (flood test species), Rate 500 g/ha, scale of 0 to 10 where 0 is no effect and 10 is complete control) was 3. For the same compound, the “Plant response rating, S. Flatsedge” value ([11]; flood test species, listed under Postemergence, Rate 250 g/ha, scale 0 to 10, 0 is no effect, 10 is complete control) was 0, the “Plant response rating, Sugarbeets” value [12, 22] was 0 and the “Sugarbeets plant response rating” value [12, 17] was 0. For the same compound, the “Plant response rating, Sugarbeets” value [12, 18] was 0, the “Plant response rating, Sugarbeets” value [12, 19] was 0 and the “Sugarbeets plant response rating” value [12, 20] was 3. The “Sugarbeets plant response rating” value [12, 21] was 5, the “Plant response rating, Corn” value [13, 23] was 0 and the “Plant response rating, Corn” value [13, 22] was 0. For the same compound, the “Corn plant response rating” value [13, 17] was 0, the “Plant response rating, Corn” value [13, 18] was 0 and the “Plant response rating, Corn” value [13, 19] was 0. For the same compound, the “Corn plant response rating” value [13, 20] was 0, the “Corn plant response rating” value [13, 21] was 0 and the “Corn plant response rating” value [13, 24] was 0. The “Plant response rating, B. signalgrass” value [14, 23] was 0, the “Plant response rating, B. signalgrass” value [14, 22] was 0 and the “B. signalgrass plant response rating” value [14, 17] was 2. The “Plant response rating, B. signalgrass” value [14, 18] was 0, the “Plant response rating, B. signalgrass” value [14, 19] was 0 and the “B. signalgrass plant response rating” value [14, 25] was 2. The “B. signalgrass plant response rating” value ([14]; Preemergence, Rate 500 g/ha, scale of 0 to 10 where 0 is no effect and 10 is complete control) was 8, the “B. signalgrass plant response rating” value [14, 24] was 0 and the “Plant response rating, Blackgrass” value [15, 23] was 0. For the same compound, the “Plant response rating, Blackgrass” value [15, 22] was 0, the “Blackgrass plant response rating” value [15, 17] was 4 and the “Plant response rating, Blackgrass” value [15, 18] was 0. The “Plant response rating, Blackgrass” value [15, 19] was 0, the “Blackgrass plant response rating” value [15, 25] was 0 and the “Blackgrass plant response rating” value [15, 21] was 3. The “Blackgrass plant response rating” value [15, 24] was 0, the “Wild oats plant response rating” value [16, 17] was 0 and the “Plant response rating, Wild oats” value [16, 18] was 0. For the same compound, the “Plant response rating, Wild oats” value [16, 19] was 0, the “Wild oats plant response rating” value [16, 20] was 0 and the “Wild oats plant response rating” value [16, 21] was 2.
